Our source for the T/C values is PubChem BioAssay AID272 (DTP/NCI, 2004).

Where “and” joins values, the source holds several entries; their conditions need not be identical. Equal entries are not always repeated. Records with an inconclusive call do not appear.

This assay concerns Lewis lung carcinoma i.m., BDF1 mice, T/C %. The assay can be described thus: NCI In Vivo Anticancer Drug Screen. Data for tumor model Lewis Lung Carcinoma (intramuscular) in B6D2F1 (BDF1) mice. As for the experimental part:
The antitumor activity of compounds was measured in mice bearing transplantable tumors. Survival or tumor size were measured and the results are expressed as the measurement made in the treated group (T) divided by the measurement made in the vehicle treated control group (C). The tumor model used in this assay is Lewis Lung Carcinoma (intramuscular) in B6D2F1 (BDF1) mice

[1] abbreviates: endpoint: median survival time, dose: 6.25 mg/kg/injection, schedule: Q01DX011 (ip), vehicle: saline, higher = longer survival.
[2] abbreviates: endpoint: median survival time, dose: 12.5 mg/kg/injection, schedule: Q01DX011 (ip), vehicle: saline, higher = longer survival.
[3] abbreviates: endpoint: median survival time, dose: 25.0 mg/kg/injection, schedule: Q01DX011 (ip), vehicle: saline, higher = longer survival.

Turning to `O=[N+]([O-])O.[Ga]`, the T/C by setting is: (endpoint: mean tumor weight, dose: 3.12 mg/kg/injection, schedule: Q01DX011 (ip), vehicle: saline, higher = larger tumour) 101 % of control; (endpoint: mean tumor weight, dose: 6.25 mg/kg/injection, schedule: Q01DX011 (ip), vehicle: saline, higher = larger tumour) 104 % of control; (endpoint: mean tumor weight, dose: 12.5 mg/kg/injection, schedule: Q01DX011 (ip), vehicle: saline, higher = larger tumour) 85 % of control; (endpoint: mean tumor weight, dose: 25.0 mg/kg/injection, schedule: Q01DX011 (ip), vehicle: saline, higher = larger tumour) 84 % of control; (endpoint: median survival time, dose: 3.12 mg/kg/injection, schedule: Q01DX011 (ip), vehicle: saline, higher = longer survival) 102 % of control; under setting [1], 97 % of control. Besides, the T/C under setting [2] is 106 % of control and the T/C under setting [3] was 93 % of control.

Consider `CNc1ccc(O)cc1`, for which the T/C is 97 % of control (endpoint: mean tumor weight (est.), dose: 6.25 mg/kg/injection, schedule: Q01DX011 (ip), vehicle: saline, higher = larger tumour); 97 % of control (endpoint: mean tumor weight (est.), dose: 12.5 mg/kg/injection, schedule: Q01DX011 (ip), vehicle: saline, higher = larger tumour); 89 % of control (endpoint: mean tumor weight (est.), dose: 25.0 mg/kg/injection, schedule: Q01DX011 (ip), vehicle: saline, higher = larger tumour); 82 % of control (endpoint: mean tumor weight (est.), dose: 50.0 mg/kg/injection, schedule: Q01DX011 (ip), vehicle: saline, higher = larger tumour); 101 % of control under setting [1]; 105 % of control under setting [2]. Moreover, the T/C under setting [3] was 100 % of control and the T/C (endpoint: median survival time, dose: 50.0 mg/kg/injection, schedule: Q01DX011 (ip), vehicle: saline, higher = longer survival) is 101 % of control.

For the compound `Nc1nc(=S)c2[nH]cnc2[nH]1`, the T/C is, setting by setting: (endpoint: mean tumor weight, dose: 0.12 mg/kg/injection, schedule: Q01DX011 (ip), vehicle: other, higher = larger tumour) 105 % of control; (endpoint: mean tumor weight, dose: 0.25 mg/kg/injection, schedule: Q01DX011 (ip), vehicle: other, higher = larger tumour) 93 % of control; (endpoint: mean tumor weight, dose: 0.5 mg/kg/injection, schedule: Q01DX011 (ip), vehicle: other, higher = larger tumour) 76 % of control; (endpoint: median survival time, dose: 0.12 mg/kg/injection, schedule: Q01DX011 (ip), vehicle: other, higher = longer survival) 97 % of control and 106 % of control; (endpoint: median survival time, dose: 0.25 mg/kg/injection, schedule: Q01DX011 (ip), vehicle: other, higher = longer survival) 116 % of control and 121 % of control; (endpoint: median survival time, dose: 0.5 mg/kg/injection, schedule: Q01DX011 (ip), vehicle: other, higher = longer survival) 116 % of control.

On to `CC(C)NCC(O)COc1cccc2ccccc12` (centres undefined), for which the T/C was 121 % of control (endpoint: median survival time, dose: 8.0 mg/kg/injection, schedule: Q01DX009 (ip), vehicle: Klucel (hydroxypropylcellulose) (HPC), higher = longer survival); 121 % of control (endpoint: median survival time, dose: 16.0 mg/kg/injection, schedule: Q01DX009 (ip), vehicle: Klucel (hydroxypropylcellulose) (HPC), higher = longer survival); 90 % of control (endpoint: median survival time, dose: 32.0 mg/kg/injection, schedule: Q01DX009 (ip), vehicle: Klucel (hydroxypropylcellulose) (HPC), higher = longer survival); 110 % of control (endpoint: median survival time, dose: 64.0 mg/kg/injection, schedule: Q01DX009 (ip), vehicle: Klucel (hydroxypropylcellulose) (HPC), higher = longer survival).

For the compound `OCN(CO)c1nc(N(CO)CO)nc(N(CO)CO)n1`, the T/C reads like this: (endpoint: mean tumor weight (est.), dose: 25.0 mg/kg/injection, schedule: Q01DX011 (ip), vehicle: saline with Tween-80, higher = larger tumour) 112 % of control; (endpoint: mean tumor weight (est.), dose: 50.0 mg/kg/injection, schedule: Q01DX011 (ip), vehicle: saline with Tween-80, higher = larger tumour) 85 % of control; (endpoint: mean tumor weight (est.), dose: 100.0 mg/kg/injection, schedule: Q01DX011 (ip), vehicle: saline with Tween-80, higher = larger tumour) 116 % of control; (endpoint: mean tumor weight (est.), dose: 200.0 mg/kg/injection, schedule: Q01DX011 (ip), vehicle: saline with Tween-80, higher = larger tumour) 120 % of control; (endpoint: mean tumor weight (est.), dose: 400.0 mg/kg/injection, schedule: Q01DX011 (ip), vehicle: saline with Tween-80, higher = larger tumour) 73 % of control.

Regarding `COc1cc2c3c(c4ccc(OC)c(OC)c4c2cc1OC)CN1CCC[C@@H]1C3`, the T/C is 88 % of control and 93 % of control (endpoint: mean tumor weight, dose: 1.0 mg/kg/injection, schedule: Q01DX011 (ip), vehicle: Klucel (hydroxypropylcellulose) (HPC), higher = larger tumour); 69 % of control and 77 % of control (endpoint: mean tumor weight, dose: 2.0 mg/kg/injection, schedule: Q01DX011 (ip), vehicle: Klucel (hydroxypropylcellulose) (HPC), higher = larger tumour); 85 % of control and 89 % of control (endpoint: mean tumor weight, dose: 4.0 mg/kg/injection, schedule: Q01DX011 (ip), vehicle: Klucel (hydroxypropylcellulose) (HPC), higher = larger tumour); 64 % of control and 73 % of control (endpoint: mean tumor weight, dose: 8.0 mg/kg/injection, schedule: Q01DX011 (ip), vehicle: Klucel (hydroxypropylcellulose) (HPC), higher = larger tumour); 41 % of control (endpoint: mean tumor weight, dose: 16.0 mg/kg/injection, schedule: Q01DX011 (ip), vehicle: Klucel (hydroxypropylcellulose) (HPC), higher = larger tumour); 102 % of control (endpoint: median survival time, dose: 1.0 mg/kg/injection, schedule: Q01DX011 (ip), vehicle: Klucel (hydroxypropylcellulose) (HPC), higher = longer survival). The T/C by setting is: (endpoint: median survival time, dose: 2.0 mg/kg/injection, schedule: Q01DX011 (ip), vehicle: Klucel (hydroxypropylcellulose) (HPC), higher = longer survival) 86 % of control; (endpoint: median survival time, dose: 4.0 mg/kg/injection, schedule: Q01DX011 (ip), vehicle: Klucel (hydroxypropylcellulose) (HPC), higher = longer survival) 114 % of control; (endpoint: median survival time, dose: 8.0 mg/kg/injection, schedule: Q01DX011 (ip), vehicle: Klucel (hydroxypropylcellulose) (HPC), higher = longer survival) 100 % of control.

On to `Clc1nc2ccccc2nc1CI`, for which the T/C was 70 % of control (endpoint: mean tumor weight (est.), dose: 5.0 mg/kg/injection, schedule: Q01DX011 (ip), vehicle: saline, higher = larger tumour) and 100 % of control (endpoint: median survival time, dose: 5.0 mg/kg/injection, schedule: Q01DX011 (ip), vehicle: saline, higher = longer survival).

As to `O=[As]O`, the T/C is, setting by setting: (endpoint: mean tumor weight, dose: 2.0 mg/kg/injection, schedule: Q01DX011 (ip), vehicle: saline, higher = larger tumour) 64 % of control; (endpoint: median survival time, dose: 2.0 mg/kg/injection, schedule: Q01DX011 (ip), vehicle: saline, higher = longer survival) 110 % of control.
